Experiment [1] relates to S. aureus quality control strain 43300 (ATCC). Briefly: microbe, parasite or virus in culture. The experiment is classed as cell-based. Particulars: Staphylococcus aureus, ATCC43300|MRSA, 18 h, read-out: MIC wild-type S.aureus.
For experiment [2], the system named is lab generated F98Y mutant strain. Briefly: Minimum inhibitory concentration, micro-dilution broth assay, F98Y mutant strain. It is filed as cell-based, S. aureus. Particulars: Staphylococcus aureus, 18 h, read-out: MIC Sa(F98Y). In general terms: Dilution methods test growth across graded concentrations, often in twofold steps.

Data on 1 molecule can be found in PMC4733634 (Journal of the American Chemical Society, 2015).

SMILES strings stand for the structures. ≈ marks a conversion by molar mass, not a printed value.

Turning to `COc1cc(Cc2cnc(N)nc2N)cc(OC)c1OC` [TMP, trimethoprim], the MIC in experiment [1] was 0.312 µg/mL (≈ 1.08 µM); in experiment [2], 10 µg/mL (≈ 34.4 µM).
